In article PMC11859636, “Design, Synthesis, and Mechanistic Anticancer Evaluation of New Pyrimidine-Tethered Compounds” (Pharmaceuticals, 2025):
Several values for one entry are separate records, joined by “and”; a condition that tells them apart may be missing. Equal values may be shown once. Read-outs that look alike come from different tables or passages of the source. Values belong to the molecule of their own block, whether it stands above or below them.

Experiments:
MCF-7 cells [1] = test: MTT assay for cytotoxicity, MCF-7 cells; format: cell-based, human; details: for IC50: Homo sapiens, MCF7, MTT, 72 h; for anti-breast cancer activity (cytotoxicity): MCF-7 cells, 100 µM
Procedure: (§1) Dulbecco’s modified Eagle’s medium (DMEM) (Wako Pure Chemical Industries, Osaka, Japan) containing 10% fetal bovine serum (FBS) (Equitech-Bio, Kerrville, TX, USA) was used for the culture of A549 and MCF-7 human cancer cells, while RPMI 1640 (Wako Pure Chemical Industries) containing 10% FBS was used for the culture of Jurkat cells, derived from human leukemia. On the other hand, PBMCs (Precision Bioservices, Frederick, MD, USA) were incubated in RPMI 1640 supplemented with 10% human serum AB (HS) (Gemini, Woodland, CA, USA). All media also incorporated 89 μg/mL of streptomycin (Meiji Seika Pharma, Tokyo, Japan), and cells were maintained at 37 °C in a 95% air and 5% CO2 humidified chamber. The microtiter tissue culture plates (24-well and 96-well) (Iwaki, Asahi Glass Co., Chiba, Japan) were used for cancer cells (4 × 10^4 cells/mL) and PBMCs (5 × 10^5 cells/mL), respectively. Prior to drug treatment, all of these cells were incubated for 72 h. The optimal cell density for cytotoxicity testing was established in preliminary experiments. […] The final concentration of DMSO in the culture medium was adjusted to 1% [61, 62, 63].
(§2) The cellular reduction in MTT (Dojindo Molecular Technologies, Kumamoto, Japan) was measured as described in the literature with minor modifications. […] MTT was then added at a final concentration 0.275 mg/mL and incubated for a further 4 h at 37 °C. The medium was removed and 100 μL DMSO was added to each well to dissolve the formazan crystals. The dissolved crystals were diluted (1:10) with DMSO, and 100 μL of the solution was transferred to a 96-well microtiter plate (Iwaki, Asahi Glass Co.). Absorbance was measured at 570 nm using an Infinitive M1000 microplate spectrophotometer (Tecan, Groding, Austria). Each concentration was tested in triplicate, and the IC50 values were determined as the drug concentrations that reduced absorbance to 50% of the control values.

MCF-7 cells [2] = test: Annexin V/ethidium homodimer III staining for apoptosis, MCF-7 cells; format: cell-based, human; details: IC50 concentration, 24 h
Procedure: (§3) Compound B-4 at an IC50 concentration was administered to A549 and MCF-7 cells for 24 h. After detachment from the plate with 0.05% trypsin and washing twice with 1× binding buffer, the cells were incubated for 20 min at r.t. in the dark with a staining solution bearing 50 μL 1× binding buffer, 4 μL FTIC annexin V solution, 4 μL ethidium homodimer III solution, and 4 μL Hoechst 33342 solution. The cells were washed with 1× binding buffer, fixed with 2% paraformaldehyde, washed with PBS, and analyzed by a Biorevo Fluorescence BZ-9000 (Keyence, Osaka, Japan) integrated fluorescence microscope.

A549 cells [3] = test: MTT assay for cytotoxicity, A549 cells; format: cell-based, human; details: for anti-NSCLC activity (cytotoxicity): A549 cells, 100 µM; for IC50: Homo sapiens, A549, MTT, 72 h
Procedure: as §1, §2

PBMCs = test: MTT assay for cytotoxicity, PBMCs (healthy); format: cell-based; details: PBMC, 72 h, healthy cells
Procedure: as §1
The cellular reduction in MTT (Dojindo Molecular Technologies, Kumamoto, Japan) was measured as described in the literature with minor modifications. […] Absorbance was measured at 570 nm using an Infinitive M1000 microplate spectrophotometer (Tecan, Groding, Austria). […]

A549 cells [4] = test: Annexin V/ethidium homodimer III staining for apoptosis, A549 cells; format: cell-based, human; details: IC50 concentration, 24 h
Procedure: as §3

Jurkat cells = test: MTT assay for cytotoxicity, Jurkat cells; format: cell-based, human; details: for IC50: Homo sapiens, Jurkat, MTT, 72 h
Procedure: as §1, §2

EGFR kinase = molecular target: T1, EGFR kinase (Homo sapiens, UniProt P00533); test: EGFR inhibition assay (EGFR Kinase Enzyme System, ADP-Glo); format: biochemical
T1 construct: EGFR kinase (human, recombinant; amino acids 695–end); purchased Promega Corporation V3831
Procedure: The kinase profiling assay protocol (EGFR Kinase Enzyme System, V3831) was performed following the manufacturer’s instructions (Promega Corporation, Madison, WI, USA) with minor modifications. As per the protocol, 95 μL of 2.5× kinase buffer and 15 μL of 100 μM ATP solution were used for the dilution of the EGFR kinase (human, recombinant; amino acids 695–end) and its substrate (4:1 Glu, Tyr). Kinase reactions were performed in a 384-well plate in the presence of 2 μL of kinase working stock, 2 μL of ATP/substrate working stock, and 1 μL of the test compound solution ([…]) or 5% DMSO solution. After incubating for 2 h at r.t., kinase activity was assessed using the ADP-Glo Kinase Assay (Promega Corporation, Madison, WI, USA) following the manufacturer’s instructions. Specifically, 5 μL of ADP-Glo Reagent was added to each well and incubated for 40 min, followed by the addition of 10 μL of Kinase Detection Reagent and further incubation for 30 min at room temperature. Luminescence was measured using the Infinite M1000 microplate reader (Tecan, Grödig, Austria) with an integration time of 0.5–1 s to evaluate the kinase inhibitory effects of the compounds in a dose-dependent manner.

EGFR = details: cited from earlier work; for IC50: read-out: EGFR inhibition IC50
A549 cells [5] = details: cited from earlier work
MCF-7 cells [6] = details: cited from earlier work
[7] = thiazolyl–pyrazolines, read-out: IC50 A549 cells
[8] = quinoline/chalcone hybrids with 1,2,4-triazole
[9] = triazoloquinoxaline–chalcone derivatives

T1 sequence (P00533 695-1210 limits assumed): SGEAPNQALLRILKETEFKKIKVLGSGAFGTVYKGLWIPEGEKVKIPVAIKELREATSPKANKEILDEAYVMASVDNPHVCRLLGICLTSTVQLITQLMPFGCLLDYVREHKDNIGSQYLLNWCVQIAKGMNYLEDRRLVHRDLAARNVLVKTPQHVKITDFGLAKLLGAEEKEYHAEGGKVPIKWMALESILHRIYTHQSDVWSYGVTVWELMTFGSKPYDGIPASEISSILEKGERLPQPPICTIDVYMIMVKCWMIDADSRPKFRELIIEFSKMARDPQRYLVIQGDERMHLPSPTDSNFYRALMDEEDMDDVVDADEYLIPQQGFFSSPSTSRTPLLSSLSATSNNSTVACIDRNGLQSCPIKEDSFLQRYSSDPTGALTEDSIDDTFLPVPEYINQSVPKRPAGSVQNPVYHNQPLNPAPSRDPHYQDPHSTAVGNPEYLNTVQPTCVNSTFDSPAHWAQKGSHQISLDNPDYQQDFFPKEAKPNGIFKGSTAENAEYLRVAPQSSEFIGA

EGFR inhibition (EGFR kinase; 1 μM): weak inhibition
inhibition at 10 µM (EGFR kinase; 10 μM): 46%
Compound: COc1ccc(C(=O)/C=C/c2cnc(-c3ccc(Cl)cc3)nc2)cc1OC [B-4, (E)-3-(2-(4-chlorophenyl)pyrimidin-5-yl)-1-(3,4-dimethoxyphenyl)prop-2-en-1-one]
IC50 (MCF-7 cells [1]): 6.7 ± 1.02 µM
anti-breast cancer activity (cytotoxicity) (MCF-7 cells [1]): 70%
cells that underwent apoptosis (MCF-7 cells [2]): 10.2%
anti-NSCLC activity (cytotoxicity) (A549 cells [3]): 70%
IC50 (A549 cells [3]): 20.5 ± 2.71 µM
IC50 (PBMCs): 68.9 ± 10.3 µM
cells that underwent apoptosis (A549 cells [4]): 11.9%
IC50 (Jurkat cells): 1.5 ± 0.4 µM
SI (Selectivity Index) (Jurkat cells; IC50 for PBMC/IC50 for Jurkat cell line): 45.93

Compound: COc1ccc(C2=NN(C(N)=S)C(c3cnc(-c4ccc(Cl)cc4)nc3)C2)cc1OC (centres unmarked) [B-9, 5-(2-(4-chlorophenyl)pyrimidin-5-yl)-3-(3,4-dimethoxyphenyl)-4,5-dihydro-1H-pyrazole-1-carbothioamide]
anti-breast cancer activity (cytotoxicity) (MCF-7 cells [1]): 33%
anti-NSCLC activity (cytotoxicity) (A549 cells [3]): 43%

Compound: COc1ccc(C2=NN(c3nc(-c4ccc(Cl)cc4)cs3)C(c3cnc(-c4ccc(Cl)cc4)nc3)C2)cc1OC (centres unmarked) [BH-4, 2-(5-(2-(4-Chlorophenyl)pyrimidin-5-yl)-3-(3,4-dimethoxyphenyl)-4,5-dihydro-1H-pyrazol-1-yl)-4-(4-(chloro)phenyl)thiazole]
anti-breast cancer activity (cytotoxicity) (MCF-7 cells [1]): 38%

Compound: COc1ccc(C2=NN(c3nc(-c4ccc(Br)cc4)cs3)C(c3cnc(-c4ccc(Cl)cc4)nc3)C2)cc1OC (centres unmarked) [BH-5, 2-(5-(2-(4-Chlorophenyl)pyrimidin-5-yl)-3-(3,4-dimethoxyphenyl)-4,5-dihydro-1H-pyrazol-1-yl)-4-(4-(bromo)phenyl)thiazole]
anti-breast cancer activity (cytotoxicity) (MCF-7 cells [1]): 39%
anti-NSCLC activity (cytotoxicity) (A549 cells [3]): 37%

Compound: Clc1ccc(C2CC(c3ccc4ccccc4c3)=NN2c2nc(-c3ccc(Br)cc3)cs2)cc1 (centres unmarked) [BTT-5]
EGFR inhibition (EGFR; 10 µM concentration, 10 µM): 58% and 58.32%
IC50 (A549 cells [5]; naphthalene-linked pyrazoline–thiazole hybrids, read-out: anti-NSCLC IC50 (A549 cells)): 9.51 µM

Compound: N#Cc1ccc(-c2csc(N3N=C(c4ccc(N5CCOCC5)cc4)CC3c3ccc(Cl)cc3)n2)cc1 (centres unmarked) [Compound 3f]
IC50 (EGFR; thiazolyl–pyrazolines): 4.34 µM
IC50 (A549 cells [5]; [7]): 10.8 µM
IC50 (MCF-7 cells [6]; thiazolyl–pyrazolines): 8.05 µM

Compound: COc1ccc2nc(Cl)c(C3CC(c4ccc(C)cc4)=NN3c3nc(-c4ccc(F)cc4)cs3)cc2c1 (centres unmarked) [Compound 6c]
IC50 (EGFR; thiazolyl–pyrazolines): 0.0318 µM
IC50 (MCF-7 cells [6]; thiazolyl–pyrazolines): 0.227 µM

Compound: COc1ccc(C2CC(c3ccc(OC)c(OC)c3)=NN2c2nc(-c3ccccc3)cs2)cc1 (centres unmarked) [Compound 6e]
IC50 (EGFR; thiazolyl–pyrazolines): 0.009 µM
IC50 (MCF-7 cells [6]; thiazolyl–pyrazolines): 7.21 µM

Compound: C=CCn1c(SCC(=O)Nc2ccc(C(=O)/C=C/c3ccc(Cl)cc3)cc2)nnc1-c1cc(-c2ccccc2)nc2ccccc12 [Compound 7b]
IC50 (EGFR; [8]): 1.3 ± 1.2 µM
IC50 (A549 cells [5]; quinoline/chalcone hybrids with 1,2,4-triazole, read-out: IC50 A549 cells): 3.6 ± 0.05 µM
IC50 (MCF-7 cells [6]; [8]): 3.3 ± 0.08 µM

Compound: CCc1nnc2c(Nc3ccc(C(=O)/C=C/c4ccc(OC)cc4)cc3)nc3ccccc3n12 [Compound 7e]
IC50 (EGFR; [9]): 0.083 ± 0.04 µM
IC50 (MCF-7 cells [6]; [9]): 8.23 ± 0.25 µM

Compound: CCOC(=O)c1sc(N2N=C(c3ccc(Cl)cc3Cl)CC2c2ccc(OC)cc2)nc1C (centres unmarked) [Compound 10b]
IC50 (EGFR; thiazolyl–pyrazolines): 0.0407 µM
IC50 (A549 cells [5]; [7]): 4.22 µM

Compound: COc1ccc(C2CC(c3ccc(Cl)cc3Cl)=NN2c2nc(C)c(C(=O)Nc3ccccc3)s2)cc1OC (centres unmarked) [Compound 10d]
IC50 (EGFR; thiazolyl–pyrazolines): 0.0325 µM
IC50 (A549 cells [5]; [7]): 2.92 µM

Compound: CS(=O)(=O)CCNCc1ccc(-c2ccc3ncnc(Nc4ccc(OCc5cccc(F)c5)c(Cl)c4)c3c2)o1 [Lapatinib]
IC50 (MCF-7 cells [1]): 9.71 ± 1.12 µM
IC50 (A549 cells [3]): 18.2 ± 3.25 µM
IC50 (PBMCs): 12.7 ± 2.08 µM
IC50 (Jurkat cells): 1.43 ± 0.35 µM
